Data on one compound can be found in article PMC5218480 (PLoS ONE, 2017).

The test system of this assay is MV-4-11 cells. As to the kind of experiment: Gene expression microarray analysis (Affymetrix PrimeView) and GSEA. It counts as cell-based, human. Details: RFU PODN (11730768_x_at) / Fold change /veh PODN (11730768_x_at) / RFU LINC00158 (11744669_a_at) / Fold change /veh LINC00158 (11744669_a_at) / RFU DUSP10 (11751237_a_at) / Fold change /veh DUSP10 (11751237_a_at) / RFU ID3 (11757404_x_at) / Fold change /veh ID3 (11757404_x_at) / RFU PLEKHG5 (11737974_s_at) / Fold change /veh PLEKHG5 (11737974_s_at) / RFU LRRC4B (11730491_at) / Fold change /veh LRRC4B (11730491_at) / RFU GIMAP4 (11747438_a_at) / Fold change /veh GIMAP4 (11747438_a_at) / RFU KRT8 (11758183_x_at) / Fold change /veh KRT8 (11758183_x_at) / RFU CNN1 (11734310_a_at) / Fold change /veh CNN1 (11734310_a_at) / RFU VPS37D (11726825_at) / Fold change /veh VPS37D (11726825_at) / RFU C10orf10 (11716522_x_at) / Fold change /veh C10orf10 (11716522_x_at) / RFU KIR2DL2 /// KIR2DL4 /// KIR2DL5A /// KIR2DL5B /// KIR2DS1 /// KIR2DS2 /// KIR2DS3 /// KIR2DS4 /// KIR3DL3 /// KIR3DL3 /// KIR3DS1 (11738374_at) / Fold change /veh KIR2DL2 /// KIR2DL4 /// KIR2DL5A /// KIR2DL5B /// KIR2DS1 /// KIR2DS2 /// KIR2DS3 /// KIR2DS4 /// KIR3DL3 /// KIR3DL3 /// KIR3DS1 (11738374_at) / RFU C1QL1 (11718748_at) / Fold change /veh C1QL1 (11718748_at) / RFU TMPRSS4 (11747572_a_at) / Fold change /veh TMPRSS4 (11747572_a_at) / RFU HAMP (11756126_x_at) / Fold change /veh HAMP (11756126_x_at) / RFU RNFT2 (11725882_a_at) / Fold change /veh RNFT2 (11725882_a_at) / RFU NR4A2 (11747474_a_at) / Fold change /veh NR4A2 (11747474_a_at) / RFU ABCC12 (11746883_a_at) / Fold change /veh ABCC12 (11746883_a_at) / RFU TMEM136 (11760407_x_at) / Fold change /veh TMEM136 (11760407_x_at) / RFU CLDN22 /// WWC2 (11732394_at) / Fold change /veh CLDN22 /// WWC2 (11732394_at) / RFU HLA-DPB1 (11760878_x_at) / Fold change /veh HLA-DPB1 (11760878_x_at) / RFU SPINT1 (11716480_a_at) / Fold change /veh SPINT1 (11716480_a_at) / RFU GAP43 (11754022_s_at) / Fold change /veh GAP43 (11754022_s_at) / RFU A4GNT (11735810_at) / Fold change /veh A4GNT (11735810_at) / RFU PRB3 (11715151_x_at) / Fold change /veh PRB3 (11715151_x_at) / RFU TUBB4B (11761932_at) / Fold change /veh TUBB4B (11761932_at) / RFU CAPN14 (11732068_a_at) / Fold change /veh CAPN14 (11732068_a_at) / RFU TMCC2 (11721928_a_at) / Fold change /veh TMCC2 (11721928_a_at) / RFU IRGQ (11745062_a_at) / Fold change /veh IRGQ (11745062_a_at) / RFU FAM174B (11720279_a_at) / Fold change /veh FAM174B (11720279_a_at) / RFU TMPRSS4 (11748680_a_at) / Fold change /veh TMPRSS4 (11748680_a_at) / RFU FAM212B (11763350_a_at) / Fold change /veh FAM212B (11763350_a_at) / RFU PLEKHG5 (11743358_a_at) / Fold change /veh PLEKHG5 (11743358_a_at) / RFU ZSCAN30 (11745921_a_at) / Fold change /veh ZSCAN30 (11745921_a_at) / RFU CMKLR1 (11741424_a_at) / Fold change /veh CMKLR1 (11741424_a_at) / RFU LOC101060620 /// MAPK8IP1 (11723275_at) / Fold change /veh LOC101060620 /// MAPK8IP1 (11723275_at) / RFU SPTSSB (11747773_x_at) / Fold change /veh SPTSSB (11747773_x_at) / RFU PRSS12 (11739890_at) / Fold change /veh PRSS12 (11739890_at) / RFU BIN1 (11741810_x_at) / Fold change /veh BIN1 (11741810_x_at) / RFU WNT11 (11732464_a_at) / Fold change /veh WNT11 (11732464_a_at) / RFU C10orf10 (11716521_a_at) / Fold change /veh C10orf10 (11716521_a_at) / RFU C5orf56 (11738089_at) / Fold change /veh C5orf56 (11738089_at) / RFU CYB561 (11721691_x_at) / Fold change /veh CYB561 (11721691_x_at) / RFU ANKRD19P (11752326_a_at) / Fold change /veh ANKRD19P (11752326_a_at) / RFU OR2T12 /// OR2T33 /// OR2T8 (11738714_s_at) / Fold change /veh OR2T12 /// OR2T33 /// OR2T8 (11738714_s_at) / RFU VCAN (11748164_a_at) / Fold change /veh VCAN (11748164_a_at) / RFU JSRP1 (11732532_at) / Fold change /veh JSRP1 (11732532_at) / RFU KRTAP10-11 (11738290_x_at) / Fold change /veh KRTAP10-11 (11738290_x_at) / RFU MYO3A (11730013_a_at) / Fold change /veh MYO3A (11730013_a_at) / RFU EBF3 (11725865_a_at) / Fold change /veh EBF3 (11725865_a_at) / RFU CAMK2N1 (11719241_x_at) / Fold change /veh CAMK2N1 (11719241_x_at) / RFU C5orf56 (11738088_a_at) / Fold change /veh C5orf56 (11738088_a_at) / RFU OLFML3 (11715873_a_at) / Fold change /veh OLFML3 (11715873_a_at) / RFU LOC100653217 /// NTM (11731650_a_at) / Fold change /veh LOC100653217 /// NTM (11731650_a_at) / RFU MAPK11 (11762145_a_at) / Fold change /veh MAPK11 (11762145_a_at) / RFU FIZ1 (11724087_x_at) / Fold change /veh FIZ1 (11724087_x_at) / RFU OASL (11726364_x_at) / Fold change /veh OASL (11726364_x_at) / RFU SOX15 (11748057_x_at) / Fold change /veh SOX15 (11748057_x_at) / RFU CD79A (11719716_a_at) / Fold change /veh CD79A (11719716_a_at) / RFU HIST1H1D (11736915_at) / Fold change /veh HIST1H1D (11736915_at) / RFU CASKIN2 (11723855_a_at) / Fold change /veh CASKIN2 (11723855_a_at) / RFU LOC730098 (11760151_x_at) / Fold change /veh LOC730098 (11760151_x_at) / RFU OR4N2 (11742367_at) / Fold change /veh OR4N2 (11742367_at) / RFU PRRT2 (11749266_a_at) / Fold change /veh PRRT2 (11749266_a_at) / RFU SNX32 (11753110_a_at) / Fold change /veh SNX32 (11753110_a_at) / RFU CDHR5 (11726645_a_at) / Fold change /veh CDHR5 (11726645_a_at) / RFU RCAN1 (11760418_a_at) / Fold change /veh RCAN1 (11760418_a_at) / RFU FAM167A (11723789_a_at) / Fold change /veh FAM167A (11723789_a_at) / RFU FAM26E (11764081_at) / Fold change /veh FAM26E (11764081_at) / RFU ISYNA1 (11749810_s_at) / Fold change /veh ISYNA1 (11749810_s_at) / RFU ACY1 (11761880_at) / Fold change /veh ACY1 (11761880_at) / RFU 11764098_at / Fold change /veh 11764098_at / RFU SAMD14 (11745864_x_at) / Fold change /veh SAMD14 (11745864_x_at) / RFU NPB (11741838_a_at) / Fold change /veh NPB (11741838_a_at) / RFU TMPRSS6 (11731388_a_at) / Fold change /veh TMPRSS6 (11731388_a_at) / RFU KRTAP10-2 (11738614_at) / Fold change /veh KRTAP10-2 (11738614_at) / RFU ARHGAP8 /// PRR5-ARHGAP8 (11727945_x_at) / Fold change /veh ARHGAP8 /// PRR5-ARHGAP8 (11727945_x_at) / RFU KRTAP5-7 /// NADSYN1 (11734609_at) / Fold change /veh KRTAP5-7 /// NADSYN1 (11734609_at) / RFU RASL12 (11751679_a_at) / Fold change /veh RASL12 (11751679_a_at) / RFU CDKN2B (11736163_a_at) / Fold change /veh CDKN2B (11736163_a_at) / RFU PRF1 (11729649_at) / Fold change /veh PRF1 (11729649_at) / RFU, ZNF638 /// ZNF638-IT1 / Fold change vs veh, ZNF638 /// ZNF638-IT1 / RFU, PANK3 / Fold change vs veh, PANK3 / RFU, SH3YL1 / Fold change vs veh, SH3YL1 / RFU, ZEB2 / Fold change vs veh, ZEB2 / RFU, NRIP1 / Fold change vs veh, NRIP1 / RFU, PTTG1IP / Fold change vs veh, PTTG1IP / RFU, CAPN2 / Fold change vs veh, CAPN2 / RFU, MED14 / Fold change vs veh, MED14 / RFU, SNORA58 / Fold change vs veh, SNORA58 / RFU, C1orf63 / Fold change vs veh, C1orf63 / RFU, LRRFIP1 / Fold change vs veh, LRRFIP1 / RFU, NDUFAF7 / Fold change vs veh, NDUFAF7 / RFU, SLC12A2 / Fold change vs veh, SLC12A2 / RFU, IBTK / Fold change vs veh, IBTK / RFU, ESF1 / Fold change vs veh, ESF1 / Fold change vs veh, TMEM50B / RFU, TAOK1 / Fold change vs veh, TAOK1 / RFU, ACBD3 / Fold change vs veh, ACBD3 / RFU, TMA16 / Fold change vs veh, TMA16 / RFU, RWDD3 / Fold change vs veh, RWDD3 / RFU, BCAT1 / Fold change vs veh, BCAT1 / RFU, EDEM3 / Fold change vs veh, EDEM3 / RFU, TMEM33 / Fold change vs veh, TMEM33 / RFU, WDR75 / Fold change vs veh, WDR75 / RFU, AHCTF1 / Fold change vs veh, AHCTF1 / RFU, TFRC / Fold change vs veh, TFRC / RFU, ZDHHC17 / Fold change vs veh, ZDHHC17 / RFU, NOM1 / Fold change vs veh, NOM1 / RFU, ARL8B / Fold change vs veh, ARL8B / RFU, ZBTB11 / Fold change vs veh, ZBTB11 / RFU, TAMM41 / Fold change vs veh, TAMM41 / RFU, KIAA1704 /// LOC100996395 / Fold change vs veh, KIAA1704 /// LOC100996395 / RFU, ING1 / Fold change vs veh, ING1 / RFU, TRMT61B / Fold change vs veh, TRMT61B / RFU, FUBP3 / Fold change vs veh, FUBP3 / RFU, TP53 / Fold change vs veh, TP53 / RFU, TNKS2 / Fold change vs veh, TNKS2 / RFU, ZFP14 / Fold change vs veh, ZFP14 / RFU, ACTR2 / Fold change vs veh, ACTR2 / RFU, PPP3R1 / Fold change vs veh, PPP3R1 / RFU, PIK3R1 / Fold change vs veh, PIK3R1 / RFU, HNRNPA1 / Fold change vs veh, HNRNPA1 / RFU, RNF170 / Fold change vs veh, RNF170 / RFU, ZNF28 / Fold change vs veh, ZNF28 / RFU, RNGTT / Fold change vs veh, RNGTT / RFU, OGT / Fold change vs veh, OGT / RFU, BRD1 / Fold change vs veh, BRD1 / RFU, MARS / Fold change vs veh, MARS / RFU, ZNF655 / Fold change vs veh, ZNF655 / RFU, FAHD1 / Fold change vs veh, FAHD1 / RFU, BDP1 / Fold change vs veh, BDP1 / RFU, LRRCC1 / Fold change vs veh, LRRCC1 / RFU, ARID1A / Fold change vs veh, ARID1A / RFU, ZNF146 / Fold change vs veh, ZNF146 / RFU, ZNF330 / Fold change vs veh, ZNF330 / RFU, GPN3 / Fold change vs veh, GPN3 / RFU, C9orf123 / Fold change vs veh, C9orf123 / RFU, N4BP2L2 / Fold change vs veh, N4BP2L2 / RFU, ARFIP1 / Fold change vs veh, ARFIP1 / RFU, FAM179B / Fold change vs veh, FAM179B / RFU, BCL10 / Fold change vs veh, BCL10 / RFU, UHRF1BP1L / Fold change vs veh, UHRF1BP1L / RFU, BET1 / Fold change vs veh, BET1 / RFU, CNOT2 / Fold change vs veh, CNOT2 / RFU, ZNF268 / Fold change vs veh, ZNF268 / Fold change vs veh, ZNF507 / RFU, DGCR2 / Fold change vs veh, DGCR2 / RFU, WDSUB1 / Fold change vs veh, WDSUB1 / Fold change vs veh, HSP90B1 /// MIR3652 / RFU, ADSS / Fold change vs veh, ADSS / RFU, GK / Fold change vs veh, GK / RFU, ZNF148 / Fold change vs veh, ZNF148 / RFU, TAF9 / Fold change vs veh, TAF9 / RFU, SLC1A5 / Fold change vs veh, SLC1A5 / RFU, SLMO2 / Fold change vs veh, SLMO2 / RFU, ABCC4 / Fold change vs veh, ABCC4 / RFU, LOC101060439 /// RAP1B / Fold change vs veh, LOC101060439 /// RAP1B / RFU, RFX7 / Fold change vs veh, RFX7 / RFU, GTPBP10 / Fold change vs veh, GTPBP10 / RFU, CNEP1R1 / Fold change vs veh, CNEP1R1 / RFU, BIVM-ERCC5 /// ERCC5 / Fold change vs veh, BIVM-ERCC5 /// ERCC5 / RFU, ILF3 / Fold change vs veh, ILF3 / RFU 11762660_at / Fold change /veh 11762660_at / RFU VCAN (11757783_s_at) / Fold change /veh VCAN (11757783_s_at) / RFU DDX43 (11728927_at) / Fold change /veh DDX43 (11728927_at) / RFU KRT8 (11758188_x_at) / Fold change /veh KRT8 (11758188_x_at) / RFU NKD1 (11759106_at) / Fold change /veh NKD1 (11759106_at) / RFU SRD5A1 (11742802_a_at) / Fold change /veh SRD5A1 (11742802_a_at) / RFU TPSAB1 /// TPSB2 (11721975_s_at) / Fold change /veh TPSAB1 /// TPSB2 (11721975_s_at) / RFU GSTM3 (11746129_a_at) / Fold change /veh GSTM3 (11746129_a_at) / RFU IL23R (11737362_x_at) / Fold change /veh IL23R (11737362_x_at) / RFU TMEM51 (11727254_a_at) / Fold change /veh TMEM51 (11727254_a_at) / RFU PIWIL2 (11732686_x_at) / Fold change /veh PIWIL2 (11732686_x_at) / RFU ORM1 (11744905_x_at) / Fold change /veh ORM1 (11744905_x_at) / RFU CCDC152 (11743942_at) / Fold change /veh CCDC152 (11743942_at) / RFU ECM1 (11717891_a_at) / Fold change /veh ECM1 (11717891_a_at) / RFU IL23R (11748794_a_at) / Fold change /veh IL23R (11748794_a_at) / RFU TNFAIP8L3 (11732012_x_at) / Fold change /veh TNFAIP8L3 (11732012_x_at) / RFU MBOAT4 (11741988_at) / Fold change /veh MBOAT4 (11741988_at) / RFU 11764193_at / Fold change /veh 11764193_at / RFU TMEM53 (11763286_at) / Fold change /veh TMEM53 (11763286_at) / RFU MAGEB2 (11727129_at) / Fold change /veh MAGEB2 (11727129_at) / RFU TMEM200A (11744735_a_at) / Fold change /veh TMEM200A (11744735_a_at) / RFU CCDC152 (11751479_a_at) / Fold change /veh CCDC152 (11751479_a_at) / RFU FAM211A (11726209_a_at) / Fold change /veh FAM211A (11726209_a_at) / RFU RGS16 (11746705_a_at) / Fold change /veh RGS16 (11746705_a_at) / RFU VCAN (11755009_s_at) / Fold change /veh VCAN (11755009_s_at) / RFU RHOB (11743442_s_at) / Fold change /veh RHOB (11743442_s_at) / RFU RGS16 (11720943_a_at) / Fold change /veh RGS16 (11720943_a_at) / RFU RGS16 (11720944_at) / Fold change /veh RGS16 (11720944_at) / RFU, VPS4B / Fold change vs veh, VPS4B / RFU, CREB1 / Fold change vs veh, CREB1 / RFU, DNAJC13 / Fold change vs veh, DNAJC13 / RFU, GNAQ / Fold change vs veh, GNAQ / RFU, CDK5R1 / Fold change vs veh, CDK5R1 / RFU, ZRANB3 / Fold change vs veh, ZRANB3 / RFU, CUL4A / Fold change vs veh, CUL4A / RFU, CCNY / Fold change vs veh, CCNY / RFU, UFL1 / Fold change vs veh, UFL1 / RFU, COG3 / Fold change vs veh, COG3 / RFU, DIAPH2 / Fold change vs veh, DIAPH2 / RFU, SKA2 / Fold change vs veh, SKA2 / RFU, AFF3 / Fold change vs veh, AFF3 / RFU, LMF1 / Fold change vs veh, LMF1 / RFU, IPO11 / Fold change vs veh, IPO11 / RFU, DFFB / Fold change vs veh, DFFB / RFU, FOXP1 / Fold change vs veh, FOXP1 / RFU, CARD8 / Fold change vs veh, CARD8 / RFU, STRN3 / Fold change vs veh, STRN3 / RFU, ADK / Fold change vs veh, ADK / RFU, RASSF2 / Fold change vs veh, RASSF2 / RFU, WIPF1 / Fold change vs veh, WIPF1 / RFU, LARP1B / Fold change vs veh, LARP1B / RFU, RASA1 / Fold change vs veh, RASA1 / RFU, RB1 / Fold change vs veh, RB1 / RFU, PPFIA1 / Fold change vs veh, PPFIA1 / RFU, MAT2A / Fold change vs veh, MAT2A / RFU, CCT5 / Fold change vs veh, CCT5 / RFU, WDR92 / Fold change vs veh, WDR92 / RFU, CUX1 / Fold change vs veh, CUX1 / RFU, TTC7A / Fold change vs veh, TTC7A / RFU, TMEM135 / Fold change vs veh, TMEM135 / RFU, DEPTOR / Fold change vs veh, DEPTOR / RFU, CPM / Fold change vs veh, CPM / RFU, DNAJB6 / Fold change vs veh, DNAJB6 / RFU, CACNA2D3 / Fold change vs veh, CACNA2D3 / RFU, DTX4 / Fold change vs veh, DTX4 / RFU, TFCP2 / Fold change vs veh, TFCP2 / RFU, GMCL1 /// GMCL1P1 / Fold change vs veh, GMCL1 /// GMCL1P1 / RFU, AEBP2 / Fold change vs veh, AEBP2 / RFU, SNHG1 /// SNORD22 /// SNORD25 /// SNORD26 /// SNORD27 /// SNORD28 /// SNORD29 /// SNORD31 / Fold change vs veh, SNHG1 /// SNORD22 /// SNORD25 /// SNORD26 /// SNORD27 /// SNORD28 /// SNORD29 /// SNORD31 / Fold change (Aza/veh), C12orf56 (ProbeSet 11735607_a_at) / Fold change (ACY-1035/veh), C12orf56 (ProbeSet 11735607_a_at) / Fold change (Aza/veh), FGFR1OP (ProbeSet 11751329_s_at) / Fold change (ACY-1035/veh), FGFR1OP (ProbeSet 11751329_s_at) / Fold change (Aza/veh), VPS36 (ProbeSet 11739960_a_at) / Fold change (ACY-1035/veh), VPS36 (ProbeSet 11739960_a_at) / RFU SYPL1 (11715823_x_at) / Fold change /veh SYPL1 (11715823_x_at) / RFU IGFBP7 (11715501_s_at) / Fold change /veh IGFBP7 (11715501_s_at) / RFU REEP3 (11722064_at) / Fold change /veh REEP3 (11722064_at) / RFU IGLL1 (11728026_x_at) / Fold change /veh IGLL1 (11728026_x_at): dose or concentration left out as unconfirmed. The conditions noted are these: ProbeSet 11727827_x_at; LIST B.

For the compound `Nc1ccc(-c2cccs2)cc1NC(=O)c1ccc2c(c1)cc(C1CC1)n2CCN1CCOCC1` [ACY-1035], the “Fold change vs veh, NDUFAF7” value came to 1.01.
